From patent US11479546B2, “Antimalarial hexahydropyrimidine analogues” (UCB Biopharma SRL, priority 2018, dated 2022)

System: Plasmodium falciparum 3D7
Test: P. falciparum 3D7 asexual blood stage assay, Assay Procedure Version 2 (SYBR green readout)
Assay type: cell-based
Details: Plasmodium falciparum, 3D7, Erythrocyte, 72 h, Version 2 of the assay procedure (asterisk *); 72 h incubation in infected erythrocytes; 50,000 nM to 15 nM
Description: Asexual Blood Stage Assay
The assay used to measure the effect of test compounds on a bloodstream stage of Plasmodium falciparum 3D7 strain employs SYBR green as the readout. This is a dye that binds to double stranded deoxyribonucleic acid (DNA) with a resulting increase in fluorescence, allowing detection of P. falciparum DNA in infected erythrocytes, and thereby providing a measure of parasite growth and propagation.
P. falciparum Culture Maintenance
Erythrocytes (A+blood) were prepared for both parasite culture and assay by washing 4 times with incomplete media (15.9 g RPMI 1640 (25 mM HEPES, L-glutamine), 1 g NaHCO3, 2 g glucose, 400 μL gentacin (500 mg/mL), 2 mL hypoxanthine solution (13.6 g/L in 0.1M NaOH pH 7.3) in 1 litre of media). The cells were centrifuged at 1800 g for 5 minutes, before decanting the supernatant and re-suspending in fresh incomplete media. On the final wash, the cells were re-suspended in complete media (incomplete media with 5 g/L AlbumaxII), and centrifuged at 1800 g for 3 minutes. This cell sediment was treated as 100% haematocrit.
P. falciparum 3D7 was cultured in erythrocytes at 5% haematocrit in complete media at 37° C. (1% O2, 3% CO2, balance N2). Cultures were split on a weekly basis to achieve a 1% parasitaemia in erythrocites at 5% haematocrit in fresh media. Culture media is replaced by fresh media every other day (2 times during the week).
[formula] where A=% inhibition at bottom; B=% inhibition at top; C=EC50; D=slope; x=inhibitor concentration; and y=% inhibition. […] Assay Procedure—Version 2
On day 1, test compounds were added to assay plates using Echo dispensing technology ([…] and 20 points titration). 50 nL of each compound dilution was added to 50 μL of culture (5% haematocrit, 0.5% parasitaemia) and incubated for 72 h at 37° C. (1% O2, 3% CO2, balance N2). Final concentrations of test compounds ranged from 50,000 nM to 15 nM, in […].
On day 4, 10 μL SYBR green (Invitrogen S7563 supplied as 10,000× concentrate in DMSO) pre-diluted to 3× concentrate with Lysis buffer (20 mM Tris pH 7.9, 5% EDTA, 0.16% w/v, 1.6% TX100 v/v) was added to the cultures and incubated in the dark, overnight, at room temperature.
On day 5, fluorescent signal was measured using a BioTek plate reader (excitation 485 nm, emission 528 nm). All data were processed using IDBS ActivityBase. Raw data were converted into percent inhibition through linear regression by setting the high inhibition control (mefloquine) as 100% and the no inhibition control (DMSO) as 0%. Quality control criteria for passing plates were as follows: Z′>0.5, S:B>3, % CV(no inhibition control)<15. The formula used to calculate Z′ is:
[formula] where μ denotes the mean; σ denotes the standard deviation; p denotes the positive control; and n denotes the negative control.
All EC50 curve fitting was undertaken using the following bi-phasic two site dose response using XLfit model 300 (IDBS):
[formula] where A=100 minus the top of the upper curve 1 and the bottom of lower curve; B=Hill slope; log(C)=IC50 concentration at lower site; log(D)=IC50 concentration at upper site; x=inhibitor concentration; and y=% inhibition.

| Structure (SMILES) | IC50 [nM] |
| --- | --- |
| C[C@@]1(c2cccc(Nc3cc(F)c4ccnn4c3)c2Cl)CC(=O)N(C2CCOCC2)C(=N)N1 [Example 70, (6S)-6-{2-Chloro-3-[(4-fluoro-pyrazolo[1,5-a]pyridin-6-yl)-amino]phenyl}-2-imino-6-methyl-3-(tetrahydropyran-4-yl)hexahydropyrimidin-4-one] | 478 |
| Cc1cnc(Nc2cccc([C@]3(C)CC(=O)N(C4CCOCC4)C(=N)N3)c2Cl)cn1 [Example 44, (6S)-6-{2-Chloro-3-[(5-methyl-pyrazin-2-yl)amino]phenyl}-2-imino-6-methyl-3-(tetrahydro-pyran-4-yl)hexahydropyrimidin-4-one] | 815 |
| C[C@@]1(c2cccc(Nc3cccnc3C#N)c2Cl)CC(=O)N(C2CCOCC2)C(=N)N1 [Example 51, 3-{2-Chloro-3-[(4S)-2-imino-4-methyl-6-oxo-1-(tetrahydro-pyran-4-yl)hexahydropyrimidin-4-yl]anilino}pyridine-2-carbo-nitrile] | 370 |
| C[C@@H]1C[C@H](N2C(=N)N[C@](C)(c3cccc(Nc4ccc(OCC(F)(F)F)nc4)c3Cl)CC2=O)CCO1 (relative stereo) [Example 201, (6S)-6-(2-Chloro-3-{[6-(2,2,2-trifluoroethoxy)pyridin-3-yl]-amino}phenyl)-2-imino-6-methyl-3-[(2R*,4R*)-2-methyl-tetrahydropyran-4-yl]-hexahydropyrimidin-4-one] | 102 |
| COc1cc(C#N)ccc1Nc1cccc([C@]2(C)CC(=O)N(C3CCOCC3)C(=N)N2)c1Cl [Example 47, 4-{2-Chloro-3-[(4S)-2-imino-4-methyl-6-oxo-1-(tetrahydro-pyran-4-yl)hexahydropyrimidin-4-yl]anilino}-3-methoxy-benzonitrile] | 171 |
| Cc1cccc(C)c1Nc1cccc([C@]2(C)CC(=O)N(C3CCOCC3)C(=N)N2)c1Cl [Example 69, (6S)-6-[2-Chloro-3-(2,6-dimethylanilino)phenyl]-2-imino-6-methyl-3-(tetrahydro-pyran-4-yl)hexahydropyrimidin-4-one] | 579 |
| C[C@@]1(c2cccc(Nc3cnccc3C(F)(F)F)c2Cl)CC(=O)N(C2CCOCC2)C(=N)N1 [Example 56, (6S)-6-(2-Chloro-3-{[4-(trifluoromethyl)pyridin-3-yl]-amino}phenyl)-2-imino-6-methyl-3-(tetrahydropyran-4-yl)hexahydropyrimidin-4-one] | 253 |
| Cc1ccc(Nc2cccc([C@]3(C)CC(=O)N([C@H]4C[C@@](C)(O)C4)C(=N)N3)c2Cl)cn1 [Example 125, (6S)-6-{2-Chloro-3-[(6-methyl-pyridin-3-yl)amino]phenyl}-3-(3-hydroxy-3-methylcyclo-butyl)-2-imino-6-methyl-hexahydropyrimidin-4-one] | 1100 |
| Cn1ncc2cc(Nc3cccc([C@]4(C)CC(=O)N(C5CCOCC5)C(=N)N4)c3Cl)cnc21 [Example 115, (6S)-6-{2-Chloro-3-[(1-methyl-pyrazolo[3,4-b]pyridin-5-yl)-amino]phenyl}-2-imino-6-methyl-3-(tetrahydropyran-4-yl)hexahydropyrimidin-4-one] | 668 |
| C[C@@]1(c2cccc(Nc3nccnc3OC(F)F)c2Cl)CC(=O)N(C2CCOCC2)C(=N)N1 [Example 101, (6S)-6-(2-Chloro-3-{[3-(difluoromethoxy)pyrazin-2-yl]-amino}phenyl)-2-imino-6-methyl-3-(tetrahydropyran-4-yl)hexahydropyrimidin-4-one] | 97 |
| C[C@@]1(c2cccc(Nc3ccc(C#N)nc3)c2Cl)CC(=O)N([C@H]2C[C@@](C)(O)C2)C(=N)N1 [Example 122, 5-{2-Chloro-3-[(4S)-1-(3-hydroxy-3-methylcyclobutyl)-2-imino-4-methyl-6-oxo-hexahydropyrimidin-4-yl]-anilino}pyridine-2-carbonitrile] | 4510 |
